From ChEMBL document CHEMBL4406842, “Synthesis and in vitro biological evaluation of novel derivatives of Flexicaulin A condensation with amino acid trifluoroacetate” (Eur J Med Chem, 2019) come the findings set out here.

The IC50 is the midpoint of a concentration-inhibition curve.

In one data set the test system is TE-1. Kind of data set: Antiproliferative activity against human TE1 cells assessed as reduction in cell viability incubated for 72 hrs by SRB assay. The class given is functional, cell-based. The conditions noted are these: TE-1, 72 h.
The test system of a further data set is MCF7. Description: Antiproliferative activity against human MCF7 cells assessed as reduction in cell viability incubated for 72 hrs by SRB assay. The conditions noted are these: MCF7, 72 h. The class given is functional, cell-based. (In general: Sulforhodamine B stains cellular protein and so reports cell mass.)
For the next data set, the system named is A549. Description: Antiproliferative activity against human A549 cells assessed as reduction in cell viability incubated for 72 hrs by SRB assay. The class given is functional, cell-based. The conditions noted are these: A549, 72 h.
A further data set concerns MGC-803. Description: Antiproliferative activity against human MGC803 cells assessed as reduction in cell viability incubated for 72 hrs by SRB assay. The format is functional, cell-based. The conditions noted are these: MGC-803, 72 h.
Data set [1] can be described thus: Solubility of compound in water. The class given is physicochemical. The following applies: buffer.

Consider `C=C1C(=O)[C@]23[C@H](OC(=O)CCCCNC(=O)OC(C)(C)C)[C@H]1C[C@H](O)[C@H]2[C@]1(COC(C)=O)CCCC(C)(C)[C@H]1C[C@H]3OC`, for which the IC50 in the data set on TE-1 is 1.19 µM; with MCF7, 1.56 µM; in the data set with A549, 5.64 µM; in the data set on MGC-803 it was 3.06 µM. In addition, in data set [1], the solubility entry is listed as “Insoluble”.
Taken in the same sequence, the figures for `C=C1C(=O)[C@]23[C@H](OC(=O)[C@H](CCCC)NC(=O)OC(C)(C)C)[C@H]1C[C@H](O)[C@H]2[C@]1(COC(C)=O)CCCC(C)(C)[C@H]1C[C@H]3OC` were 4.49 µM, 4.42 µM, 11 µM, 11.2 µM and “Insoluble”.
As for `C=C1C(=O)[C@]23[C@H](OC(=O)[C@@H](N)CCC)[C@H]1C[C@H](O)[C@H]2[C@]1(COC(C)=O)CCCC(C)(C)[C@H]1C[C@H]3OC.O=C(O)C(F)(F)F`, the IC50 with TE-1 stood at 1.72 µM; in the data set on MCF7 it was 4.57 µM; in the data set with A549 it was 1.64 µM; in the data set with MGC-803 it was 4.94 µM. Moreover, in data set [1], the solubility result is on record as “Soluble”.
`C=C1C(=O)[C@]23[C@H](OC(=O)CNC)[C@H]1C[C@H](O)[C@H]2[C@]1(COC(C)=O)CCCC(C)(C)[C@H]1C[C@H]3OC.O=C(O)C(F)(F)F`: the IC50 with TE-1 stood at 3.19 µM; with MCF7, 3.62 µM; in the data set with A549, 5.86 µM; in the data set on MGC-803 it was 5.35 µM. Moreover, the solubility result in data set [1] is “Soluble”.
Taken in the same sequence, the figures for `C=C1C(=O)[C@]23[C@H](OC(=O)CN)[C@H]1C[C@H](O)[C@H]2[C@]1(COC(C)=O)CCCC(C)(C)[C@H]1C[C@H]3OC.O=C(O)C(F)(F)F` were 1.85 µM, 2.57 µM, 3.86 µM, 3.15 µM and “Soluble”.
Taken in the same sequence, the figures for `C=C1C(=O)[C@]23[C@H](OC(=O)[C@H]4CCCNC4)[C@H]1C[C@H](O)[C@H]2[C@]1(COC(C)=O)CCCC(C)(C)[C@H]1C[C@H]3OC.O=C(O)C(F)(F)F` were 6.55 µM, 11.5 µM, 17.2 µM, 6.22 µM and “Soluble”.
Consider `C=C1C(=O)[C@]23[C@H](OC(=O)CCCCCNC(=O)OC(C)(C)C)[C@H]1C[C@H](O)[C@H]2[C@]1(COC(C)=O)CCCC(C)(C)[C@H]1C[C@H]3OC`, for which the IC50 in the data set on TE-1 amounted to 1.72 µM; with MCF7, 2.84 µM; in the data set with A549 it was 5.41 µM; in the data set with MGC-803, 3.5 µM. The solubility result in data set [1] is recorded as “Insoluble”.
Taken in the same sequence, the figures for `C=C1C(=O)[C@]23[C@H](OC(=O)[C@@H](N)c4ccccc4)[C@H]1C[C@H](O)[C@H]2[C@]1(COC(C)=O)CCCC(C)(C)[C@H]1C[C@H]3OC.O=C(O)C(F)(F)F` were 0.92 µM, 1.11 µM, 1.68 µM, 1.66 µM and “Soluble”.
As to `C=C1C(=O)[C@]23[C@H](OC(=O)CCCCCN)[C@H]1C[C@H](O)[C@H]2[C@]1(COC(C)=O)CCCC(C)(C)[C@H]1C[C@H]3OC.O=C(O)C(F)(F)F`, the IC50 with TE-1 was 5.36 µM; in the data set on MCF7, 3.68 µM; in the data set with A549 it was 11.4 µM; in the data set with MGC-803 it was 5.14 µM. Moreover, in data set [1], the solubility entry is given as “Soluble”.
Take `C=C1C(=O)[C@]23[C@H](OC(=O)[C@H](CCCNC(=O)OC(C)(C)C)NC(=O)OC(C)(C)C)[C@H]1C[C@H](O)[C@H]2[C@]1(COC(C)=O)CCCC(C)(C)[C@H]1C[C@H]3OC`: the IC50 in the data set with TE-1 amounted to 1.39 µM; in the data set with MCF7 it was 2.15 µM; in the data set on A549, 2.99 µM; in the data set on MGC-803 it was 3.33 µM. In addition, in data set [1], the solubility result is listed as “Insoluble”.
For the compound `C=C1C(=O)[C@]23[C@H](OC(=O)[C@@H](N)CCCCN)[C@H]1C[C@H](O)[C@H]2[C@]1(COC(C)=O)CCCC(C)(C)[C@H]1C[C@H]3OC.O=C(O)C(F)(F)F.O=C(O)C(F)(F)F`, the IC50 was 14.3 µM in the data set on TE-1, 22.2 µM in the data set on MCF7, 5.86 µM with A549 and 9.52 µM in the data set on MGC-803. Further, in data set [1], the solubility entry is given as “Soluble”.
Taken in the same sequence, the figures for `C=C1C(=O)[C@]23[C@H](OC(=O)[C@H](CCCCNC(=O)OC(C)(C)C)NC(=O)OC(C)(C)C)[C@H]1C[C@H](O)[C@H]2[C@]1(COC(C)=O)CCCC(C)(C)[C@H]1C[C@H]3OC` were 2.76 µM, 4.06 µM, 6.46 µM, 5.43 µM and “Insoluble”.
Regarding `C=C1C(=O)[C@]23[C@H](O)[C@H]1CC[C@H]2[C@@]12CO[C@]3(O)[C@@H](O)[C@@H]1C(C)(C)CC[C@@H]2O` [ORIDONIN], the IC50 turned out to be 12.7 µM in the data set with TE-1, 22 µM in the data set with MCF7, 13.5 µM with A549 and 14.1 µM with MGC-803.
As for `C=C1C(=O)[C@]23[C@H](OC(=O)[C@@H](N)CC)[C@H]1C[C@H](O)[C@H]2[C@]1(COC(C)=O)CCCC(C)(C)[C@H]1C[C@H]3OC.O=C(O)C(F)(F)F`, the 50% inhibitory concentration (IC50) stood at 2.57 µM with TE-1, 3.75 µM with MCF7, 4.42 µM in the data set with A549 and 3.88 µM in the data set on MGC-803. The solubility result in data set [1] was “Soluble”.
Taken in the same sequence, the figures for `C=C1C(=O)[C@]23[C@H](OC(=O)[C@H](Cc4ccccc4)N(C)C(=O)OC(C)(C)C)[C@H]1C[C@H](O)[C@H]2[C@]1(COC(C)=O)CCCC(C)(C)[C@H]1C[C@H]3OC` were 1.16 µM, 2.46 µM, 3.15 µM, 1.51 µM and “Insoluble”.
Taken in the same sequence, the figures for `C=C1C(=O)[C@]23[C@H](OC(=O)[C@@H](N)Cc4ccccc4)[C@H]1C[C@H](O)[C@H]2[C@]1(COC(C)=O)CCCC(C)(C)[C@H]1C[C@H]3OC.O=C(O)C(F)(F)F` were 1.88 µM, 1.01 µM, 2.71 µM, 1 µM and “Soluble”.
Regarding `C=C1C(=O)[C@]23[C@H](OC(=O)[C@@H](NC(=O)OC(C)(C)C)C(C)C)[C@H]1C[C@H](O)[C@H]2[C@]1(COC(C)=O)CCCC(C)(C)[C@H]1C[C@H]3OC`, the IC50 with TE-1 amounted to 1.68 µM; in the data set with MCF7 it was 2.73 µM; in the data set with A549, 3.94 µM; in the data set with MGC-803 it was 2.88 µM. Moreover, in data set [1], the solubility result is “Insoluble”.
As to `C=C1C(=O)[C@]23[C@H](O)[C@H]1C[C@H](O)[C@H]2[C@]1(COC(C)=O)CCCC(C)(C)[C@H]1C[C@H]3OC`, the IC50 in the data set with TE-1 amounted to 4.4 µM; in the data set on MCF7 it was 1.65 µM; in the data set on A549, 1.77 µM; in the data set with MGC-803 it was 1.11 µM.
Take `C=C1C(=O)[C@]23[C@H](OC(=O)[C@@H]4CCCCN4)[C@H]1C[C@H](O)[C@H]2[C@]1(COC(C)=O)CCCC(C)(C)[C@H]1C[C@H]3OC.O=C(O)C(F)(F)F`: the IC50 with TE-1 was 3.16 µM; in the data set with MCF7, 3.49 µM; in the data set on A549, 2.84 µM; in the data set on MGC-803, 7.15 µM. Besides, the solubility result in data set [1] is “Soluble”.
Taken in the same sequence, the figures for `C=C1C(=O)[C@]23[C@H](OC(=O)[C@H](C)NC)[C@H]1C[C@H](O)[C@H]2[C@]1(COC(C)=O)CCCC(C)(C)[C@H]1C[C@H]3OC.O=C(O)C(F)(F)F` were 3.32 µM, 5.03 µM, 2.79 µM, 6.34 µM and “Soluble”.
Regarding `C=C1C(=O)[C@]23[C@H](OC(=O)[C@@H](N)CCCN)[C@H]1C[C@H](O)[C@H]2[C@]1(COC(C)=O)CCCC(C)(C)[C@H]1C[C@H]3OC.O=C(O)C(F)(F)F.O=C(O)C(F)(F)F`, the IC50 turned out to be 2.71 µM with TE-1, 6.55 µM with MCF7, 8.04 µM with A549 and 5.28 µM in the data set with MGC-803. The solubility entry in data set [1] is reported as “Soluble”.
As for `C=C1C(=O)[C@]23[C@H](OC(=O)[C@H](C)NC(=O)OC(C)(C)C)[C@H]1C[C@H](O)[C@H]2[C@]1(COC(C)=O)CCCC(C)(C)[C@H]1C[C@H]3OC`, the IC50 with TE-1 was found to be 1.07 µM; in the data set on MCF7, 2.36 µM; in the data set with A549 it was 5.63 µM; in the data set on MGC-803, 2.64 µM. In addition, the solubility result in data set [1] was “Insoluble”.
Taken in the same sequence, the figures for `C=C1C(=O)[C@]23[C@H](OC(=O)[C@H](CCc4ccccc4)NC(=O)OC(C)(C)C)[C@H]1C[C@H](O)[C@H]2[C@]1(COC(C)=O)CCCC(C)(C)[C@H]1C[C@H]3OC` were 1.63 µM, 2.18 µM, 3.72 µM, 1.73 µM and “Insoluble”.
Taken in the same sequence, the figures for `C=C1C(=O)[C@]23[C@H](OC(=O)[C@H]4CCCN(C(=O)OC(C)(C)C)C4)[C@H]1C[C@H](O)[C@H]2[C@]1(COC(C)=O)CCCC(C)(C)[C@H]1C[C@H]3OC` were 1.65 µM, 2.58 µM, 3.49 µM, 2.55 µM and “Insoluble”.
Taken in the same sequence, the figures for `C=C1C(=O)[C@]23[C@H](OC(=O)[C@@H]4CCCN4C(=O)OC(C)(C)C)[C@H]1C[C@H](O)[C@H]2[C@]1(COC(C)=O)CCCC(C)(C)[C@H]1C[C@H]3OC` were 2.78 µM, 3.7 µM, 5.9 µM, 2.81 µM and “Insoluble”.
